Counter-ions that a name gives are not always drawn.
Experiments:
HIFPH2 (EGLN1) = HIFPH2 (EGLN1) (Homo sapiens (Human), UniProt Q9GZT9); test: EGLN-1 Activity Assay (MALDI-TOF MS); format: biochemical; details: recombinant human EGLN-1-179/426, HIF-1α peptide 556-574
Description: The enzyme, quantity predetermined to hydroxylate 20% of substrate in 20 minutes, is added to start the reaction. Where inhibitors are used, compounds are prepared in dimethyl sulfoxide at 10-fold final assay concentration. After 20 minutes at room temperature, the reaction is stopped by transferring 10 μL of reaction mixture to 50 μL of a mass spectrometry matrix solution (α-cyano-4-hydroxycinnamic acid, 5 mg/mL in 50% acetonitrile/0.1% TFA, 5 mM NH4PO4). Two microliters of the mixture is spotted onto a MALDI-TOF MS target plate for analysis with an Applied Biosystems (Foster City, Calif.) 4700 Proteomics Analyzer MALDI-TOF MS equipped with a Nd:YAG laser (355 nm, 3 ns pulse width, 200 Hz repetition rate). Hydroxylated peptide product is identified from substrate by the gain of 16 Da. Data defined as percent conversion of substrate to product is analyzed in GraphPad Prism 4 to calculate IC50 values.

[1] = solubility of pharmaceutically acceptable salts in water; format: physicochemical; details: for solubility at 20 min: thermodynamic from solid, distilled deionized water, sonicated 20 min, under 25° C., HPLC
Description: The formulator can determine the solubility of the pharmaceutically acceptable salts of the disclosed inhibitors by any method desirable. The following is a non-limiting example of a procedure for evaluating the solubility of a salt of a disclosed inhibitor. A suspension of tert-butyl-{1[-(4-chlorobenzyl)-3-hydroxy-2-oxo-1,2-dihydropyridin-4-yl]methyl}-piperazine-1-carboxylate methanesulfonate (26.6 mg) in distilled deionized water (3.0 mL) is sonicated for 20 min with water bath temperature under 25° C. The suspension is filtered to remove any insoluble salt. The clear filtrate solution (200 μL) is diluted with distilled deionized water (800 μL) and subjected to HPLC analysis. The following are results for the pharmaceutically acceptable salts outlined in Table VII above.

[2] = tested on: phosphoglycerate kinase (PGK) expression; test: PGK expression in wild type murine embryonic fibroblasts; format: cell-based; details: 1 μM, 10 μM vs. wild type control (FIG. 12)
Staphylococcus aureus = details: dose-dependent; Zinkernagel et al. 2008; cited from earlier work
S. aureus = details: Zinkernagel et al. 2008; cited from earlier work

Sequence of HIFPH2 (EGLN1) (Q9GZT9 179-426): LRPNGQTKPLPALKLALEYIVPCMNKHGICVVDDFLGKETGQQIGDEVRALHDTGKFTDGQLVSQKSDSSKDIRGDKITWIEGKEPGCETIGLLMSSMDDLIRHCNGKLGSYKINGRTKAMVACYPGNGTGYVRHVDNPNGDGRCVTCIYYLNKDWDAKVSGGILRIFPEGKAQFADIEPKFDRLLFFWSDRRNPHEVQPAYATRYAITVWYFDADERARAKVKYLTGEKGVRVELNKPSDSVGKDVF

Compound	IC50 (HIFPH2 (EGLN1))	other results
1-Benzyl-3-hydroxy-4-(4-benzylpiperidin-1-ylmethyl)pyridin-2(1H)-one [Compound B9]	17 µM	–
1-Benzyl-3-hydroxy-4-(benzylaminomethyl)pyridin-2(1H)-one [Compound C1]	12 µM	–
COc1ccccc1Cn1ccc(CN2CCCCCC2)c(O)c1=O [Compound A18]	18 µM	–
CC(C)(C)OC(=O)N1CCN(Cc2ccn(Cc3ccc(Cl)cc3)c(=O)c2O)CC1 [Compound A41, tert-butyl 4-{[1-(4-chlorobenzyl)-3-hydroxy-2-oxo-1,2-dihydropyridin-4-yl]methyl}-piperazine-1-carboxylate]	14 µM	solubility at 20 min [1]: ~1 µg/mL
COC[C@H]1CCCN1Cc1ccn(Cc2ccccc2)c(=O)c1O [Compound B5, 1-Benzyl-3-hydroxy-4-{[2-(methoxymethyl)pyrrolidin-1-yl]methyl}pyridin-2(1H)-one]	9 µM	–
O=c1c(O)c(CN2CCN(c3ccc(Cl)nn3)CC2)ccn1Cc1ccccc1 [Compound B14, 1-Benzyl-3-hydroxy-4-[4-(6-chloropyridazin-3-yl)piperazin-1-ylmethyl]pyridin-2(1H)-one]	11 µM	–
CC(NCc1ccn(Cc2ccccc2)c(=O)c1O)c1ccccc1 (centres unmarked) [Compound C14, 1-Benzyl-3-hydroxy-4-[(1-phenylethylamino)methyl]pyridin-2(1H)-one]	12 µM	–
CC1CCC(NCc2ccn(Cc3ccccc3)c(=O)c2O)CC1 (centres unmarked) [Compound C17, 1-Benzyl-3-hydroxy-4-[(4-methylcyclohexylamino)methyl]pyridin-2(1H)-one]	11 µM	–
O=C1NCCCCC1NCc1ccn(Cc2ccccc2)c(=O)c1O (centres unmarked) [Compound C19, 3-[(1-Benzyl-3-hydroxy-2-oxo-1,2-dihydropyridin-4-yl)methylamino]azepan-2-one]	12 µM	–
CSCCNCc1ccn(Cc2ccccc2)c(=O)c1O [Compound C33]	16 µM	–
O=c1c(O)c(CNCCCn2ccnc2)ccn1Cc1ccccc1 [Compound C35]	12 µM	–
Cc1ccc(S(=O)(=O)n2ccc(CN3CCC(N4CCCCC4)CC3)c(O)c2=O)cc1 [Compound D10, 1-(4′-Methylbenzenesulfonyl)-3-hydroxy-4-[1,4]Bipiperidinyl-1′-ylmethylpyridin-2(1H)-one]	4.4 µM	–
Cc1ccc(S(=O)(=O)n2ccc(CN3CCN(c4ccc(Cl)nn4)CC3)c(O)c2=O)cc1 [Compound D14, 1-(4′-Methylbenzenesulfonyl)-3-hydroxy-4-[4-(6-chloropyridazin-3-yl)piperazin-1-ylmethyl]pyridin-2(1H)-one]	12 µM	–
O=c1c(O)cccn1Cc1cccc(Cl)c1 [Compound F2, 1-(3-chlorobenzyl)-3-hydroxypyridin-2(1H)-one]	5 µM	PGK expression [2]: up regulation
O=c1c(O)cccn1Cc1ccc(Cl)cc1 [Compound F3, 1-(4-chlorobenzyl)-3-hydroxypyridin-2(1H)-one]	1.2 µM	–
CC(C)(C)OC(=O)N1CCN(Cc2ccn(Cc3ccc(Cl)cc3)c(=O)c2O)CC1 [hydrochloride, tert-butyl-{[1-(4-chlorobenzyl)-3-hydroxy-2-oxo-1,2-dihydropyridin-4-yl]methyl}-piperazine-1-carboxylate]	–	Solubility [1]: 5900 µg/mL
CC(C)(C)OC(=O)N1CCN(Cc2ccn(Cc3ccc(Cl)cc3)c(=O)c2O)CC1.CS(=O)(=O)O [methanesulfonate, tert-butyl-{1[-(4-chlorobenzyl)-3-hydroxy-2-oxo-1,2-dihydropyridin-4-yl]methyl}-piperazine-1-carboxylate methanesulfonate]	–	solubility at 20 min [1]: 16600 µg/mL
NC(Cn1ccc(=O)c(O)c1)C(=O)O (centres unmarked) [mimosine]	–	capacity of human phagocytes and whole blood to kill Staphylococcus aureus (Staphylococcus aureus): boost; lesion size (S. aureus): reduce the lesion size
CC(C)(C)OC(=O)N1CCN(Cc2ccn(Cc3ccc(Cl)cc3)c(=O)c2O)CC1 [p-toluenesulfonate, tert-butyl-{[1-(4-chlorobenzyl)-3-hydroxy-2-oxo-1,2-dihydropyridin-4-yl]methyl}-piperazine-1-carboxylate]	–	Solubility [1]: 2300 µg/mL
tert-butyl-{[1-(4-chlorobenzyl)-3-hydroxy-2-oxo-1,2-dihydropyridin-4-yl]methyl}-piperazine-1-carboxylate [hydrogensulfonate]	–	Solubility [1]: 13200 µg/mL
